Test system: 616215-338-R-J1-PDC complex spheroid viability
Test: Anticancer human tumor 616215-338-R-J1-PDC patient-derived colon adenocarcinoma cell line growth inhibition [RAS]
Conditions: for IC50: curve of first compound; for viability, T/C: stronger effect = lower value; active = viability on the fitted dose curve at most 10% of control; inactive = the rest
How it was run: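 Agents were tested in combination matrices in half-log decrements from a top concentration at or near clinical Cmax (10 microM if undetermined). Targets were multi-cell spheroids of tumour lines plus HUVEC and MSC stromal cells.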
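Also: spheroids exposed to agents for seven days before viability readout.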
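For viability, T/C in this document: 100% = DMSO vehicle control viability.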

CCc1c2c(nc3ccc(O)cc13)-c1cc3c(c(=O)n1C2)COC(=O)[C@]3(O)CC + C=CC(=O)N1CCN(c2nc(OCC3CCCN3C)nc3c(F)c(-c4nc(N)cc(C)c4C(F)(F)F)c(Cl)cc23)C(C)C1
13.8 nM: IC50 (second compound 0.0316 µM)
9.38 nM: IC50 (second compound 0.1 µM)
14.1 nM: IC50 (second compound 0.316 µM)
8.93 nM: IC50 (second compound 0.00316 µM)
8.71 nM: IC50 (second compound 0.01 µM)
inactive: viability, T/C (second compound 0.00316 µM, first compound 0.000949 µM) 98% | viability, T/C (second compound 0.00316 µM, first compound 0.003 µM) 103% | viability, T/C (second compound 0.00316 µM, first compound 0.00949 µM) 47.2% | viability, T/C (second compound 0.00316 µM, first compound 0.03 µM) 27% | viability, T/C (second compound 0.00316 µM, first compound 0.0949 µM) 20.6% | viability, T/C (second compound 0.00316 µM, first compound 0.3 µM) 16.9% | viability, T/C (second compound 0.01 µM, first compound 0.000949 µM) 99.3% | viability, T/C (second compound 0.01 µM, first compound 0.003 µM) 106% | viability, T/C (second compound 0.01 µM, first compound 0.00949 µM) 45.8% | viability, T/C (second compound 0.01 µM, first compound 0.03 µM) 30.2% | viability, T/C (second compound 0.01 µM, first compound 0.0949 µM) 23.6% | viability, T/C (second compound 0.01 µM, first compound 0.3 µM) 17.6% | viability, T/C (second compound 0.0316 µM, first compound 0.000949 µM) 107% | viability, T/C (second compound 0.0316 µM, first compound 0.003 µM) 115% | viability, T/C (second compound 0.0316 µM, first compound 0.00949 µM) 59.9% | viability, T/C (second compound 0.0316 µM, first compound 0.03 µM) 32.5% | viability, T/C (second compound 0.0316 µM, first compound 0.0949 µM) 18.4% | viability, T/C (second compound 0.0316 µM, first compound 0.3 µM) 14.9% | viability, T/C (second compound 0.1 µM, first compound 0.000949 µM) 112% | viability, T/C (second compound 0.1 µM, first compound 0.003 µM) 109% | viability, T/C (second compound 0.1 µM, first compound 0.00949 µM) 48.5% | viability, T/C (second compound 0.1 µM, first compound 0.03 µM) 29.4% | viability, T/C (second compound 0.1 µM, first compound 0.0949 µM) 20.1% | viability, T/C (second compound 0.1 µM, first compound 0.3 µM) 16.5% | viability, T/C (second compound 0.316 µM, first compound 0.000949 µM) 110% | viability, T/C (second compound 0.316 µM, first compound 0.003 µM) 98.1% | viability, T/C (second compound 0.316 µM, first compound 0.00949 µM) 57.7% | viability, T/C (second compound 0.316 µM, first compound 0.03 µM) 32.4% | viability, T/C (second compound 0.316 µM, first compound 0.0949 µM) 16.3% | viability, T/C (second compound 0.316 µM, first compound 0.3 µM) 12.8% | viability, T/C (second compound 1 µM, first compound 0.000949 µM) 106% | viability, T/C (second compound 1 µM, first compound 0.003 µM) 110% | viability, T/C (second compound 1 µM, first compound 0.00949 µM) 42.5% | viability, T/C (second compound 1 µM, first compound 0.03 µM) 28.2% | viability, T/C (second compound 1 µM, first compound 0.0949 µM) 22.9% | viability, T/C (second compound 1 µM, first compound 0.3 µM) 15.4%
8.32 nM: IC50 (second compound 1 µM)

Cc1nc(N2CCC3(CC2)COC(C)C3N)c(CO)nc1Sc1ccnc(N)c1Cl (centres undefined) + C#Cc1c(F)ccc2cc(O)cc(-c3ncc4c(N5CC6CCC(C5)N6)nc(OCC56CCCN5CC(F)C6)nc4c3F)c12
537 nM: IC50 (second compound 1 µM)
> 10000 nM: IC50 (second compound 0.0316 µM) | IC50 (second compound 0.1 µM)
inactive: viability, T/C (second compound 0.0316 µM, first compound 0.0316 µM) 99.5% | viability, T/C (second compound 0.0316 µM, first compound 0.1 µM) 108% | viability, T/C (second compound 0.0316 µM, first compound 0.316 µM) 116% | viability, T/C (second compound 0.0316 µM, first compound 1 µM) 95.2% | viability, T/C (second compound 0.0316 µM, first compound 3.16 µM) 88.5% | viability, T/C (second compound 0.0316 µM, first compound 10 µM) 67.8% | viability, T/C (second compound 0.1 µM, first compound 0.0316 µM) 101% | viability, T/C (second compound 0.1 µM, first compound 0.1 µM) 113% | viability, T/C (second compound 0.1 µM, first compound 0.316 µM) 104% | viability, T/C (second compound 0.1 µM, first compound 1 µM) 79.6% | viability, T/C (second compound 0.1 µM, first compound 3.16 µM) 68% | viability, T/C (second compound 0.1 µM, first compound 10 µM) 63.1% | viability, T/C (second compound 0.316 µM, first compound 0.0316 µM) 113% | viability, T/C (second compound 0.316 µM, first compound 0.1 µM) 116% | viability, T/C (second compound 0.316 µM, first compound 0.316 µM) 98.3% | viability, T/C (second compound 0.316 µM, first compound 1 µM) 75.3% | viability, T/C (second compound 0.316 µM, first compound 3.16 µM) 57.7% | viability, T/C (second compound 0.316 µM, first compound 10 µM) 42.1% | viability, T/C (second compound 1 µM, first compound 0.0316 µM) 98.2% | viability, T/C (second compound 1 µM, first compound 0.1 µM) 97.2% | viability, T/C (second compound 1 µM, first compound 0.316 µM) 52.7% | viability, T/C (second compound 1 µM, first compound 1 µM) 48.5% | viability, T/C (second compound 1 µM, first compound 3.16 µM) 48.2% | viability, T/C (second compound 1 µM, first compound 10 µM) 43.7% | viability, T/C (second compound 3.16 µM, first compound 0.0316 µM) 88.8% | viability, T/C (second compound 3.16 µM, first compound 0.1 µM) 67.9% | viability, T/C (second compound 3.16 µM, first compound 0.316 µM) 49.2% | viability, T/C (second compound 3.16 µM, first compound 1 µM) 49.9% | viability, T/C (second compound 3.16 µM, first compound 3.16 µM) 41.2% | viability, T/C (second compound 3.16 µM, first compound 10 µM) 54.1% | viability, T/C (second compound 10 µM, first compound 0.0316 µM) 52.2% | viability, T/C (second compound 10 µM, first compound 0.1 µM) 61.4% | viability, T/C (second compound 10 µM, first compound 0.316 µM) 43.8% | viability, T/C (second compound 10 µM, first compound 1 µM) 37% | viability, T/C (second compound 10 µM, first compound 3.16 µM) 34.6% | viability, T/C (second compound 10 µM, first compound 10 µM) 33%
182 nM: IC50 (second compound 10 µM)
5230 nM: IC50 (second compound 0.316 µM)
302 nM: IC50 (second compound 3.16 µM)

From PubChem BioAssay AID2060898 (Molecular Pharmacology Branch, DTP, NCI, 2025)
